“Also recorded” adds a separate entry of the source.
Assays:
Assay type in all cases: in vivo
male volunteers = assay: Naloxone-induced withdrawal in human volunteers, palonosetron alone or with hydroxyzine; details: palonosetron 0.75 mg IV alone, 12 male volunteers
Description: In these studies, palonosetron (a 5-HT3 antagonist) was administered alone, or in combination with a clinically available antihistamine (hydroxyzine) to human volunteers.

C57BL/6J mice [1] = assay: Conditioned place preference (CPP) associated with morphine
Description: The CPP experiments were performed using Place Preference System (MED Associates Inc., St. Albans, Vt.), which consists of three compartments; two outer compartments for active association and a middle neutral compartment. One association compartment is constructed of white opaque plastic walls with a floor made of metal rods while the other compartment is made of black opaque plastic walls with a metal mesh floor. The smaller middle neutral compartment is made of gray opaque plastic walls and floor. Experiments were conducted in a dimly lit room with homogenous lighting (˜20 lux). The place preference apparatus is equipped with motion photo-sensors with data recorded via a computer running MED PC software (MED Associates Inc, Vt.). C57B1/6J mice (8 to 12 weeks old) were used in all experiments, which were carried out during the second half of the light phase between 13:00-18:00 hr. On Day 0, the mice were acclimated to the test room and the time spent in each compartment was recorded (pre-conditioning report). Any mouse that spent more than 75% of the time in either of the association compartments was excluded. On the following day each mouse was randomized to a control or drug group and assigned to either the white or black association compartments in a counter-balanced fashion (n=10-15 per group). […] Twenty-five minutes after injection(s), each mouse was placed into its assigned association compartment for 25 min without access to the other compartments. On Days 2, 4 and 6, the mice received saline injections and were placed in the alternative compartment after 25 min. On Day 7, mice were placed in the middle neutral compartment of the place preference apparatus with full access to the other two compartments and assessed for the length of time spent in each compartment (post-conditioning report). The percentage of time spent in each association compartment was calculated relative to the total time spent in both association compartments.

C57BL/6J mice [2] = assay: Opioid dependence related hyperalgesia, mechanical nociceptive threshold (von Frey filaments)
Description: (§1) In some experiments the selective 5-HT3 antagonist ondansetron (Sigma) was administered. For systemic administration, ondansetron was injected subcutaneously in […] of 0.9% NaCl to some groups of mice. […] For intracerebroventricular (i.c.v.) administration, mice were briefly anesthetized with inhaled isoflurane. A 30 gauge ½ inch needle was used to pierce the skull and enter the ventricles using an approach described previously (Pedigo, N. W. et al. J Pharmacol Exp Ther, 1975. 193(3): p. 845-852). Once inserted, 5 μl of injectate was slowly administered using a microsyringe, and the animals were used within 20 minutes after the injection.
In these experiments, mice were placed on wire mesh platforms in clear cylindrical plastic cylinders. After 15 minutes of acclimation, fibers of sequentially increasing stiffness were applied to the plantar surface of one hind paw, pressed upward to cause a slight bend in the fiber and left in place 5 sec. Withdrawal of the hind paw from the fiber was scored as a response. When no response was obtained the next stiffest fiber in the series was applied to the same paw; if a response was obtained a less stiff fiber was applied. Testing proceeded in this manner until 4 fibers had been applied after the first one causing a withdrawal response allowing the estimation of the mechanical withdrawal threshold (Poree, L. R., et al., Anesth Analg, 1998. 87(4): p. 941-948).

healthy male volunteers = assay: Acute naloxone-precipitated opioid withdrawal in human volunteers after ondansetron pretreatment (OOWS, SOWS)
Excerpt: Eight healthy male volunteers underwent an acute precipitated narcotic drug withdrawal protocol as previously described (Compton, P., et al., Pharmacol Biochem Behav, 2004. 77(2): p. 263-268) with or without ondansetron pretreatment using a randomized double-blinded placebo-controlled crossover study design on two separate occasions. Test sessions for each individual subject were separated by at least seven days. Female volunteers were excluded from the study due to modulation of opioid response by menstruation cycles (Hoehe, M., Psychoneuroendocrinology, 1988. 13(4): p. 339-344). The human experimental protocol was approved by the Institutional Review Board (Stanford University). Each volunteer provided written informed consent prior to study enrollment, and the study was registered in the clinicaltrials.gov database (identifier NCT00661674).
All study sessions were conducted by a blinded research assistant (ND) and supervised by an un-blinded physician (LC) who administered the study medication and monitored heart rate, blood pressure and arterial oxygenation throughout the study. The subjective opioid withdrawal scale (SOWS) and objective opioid withdrawal scale (OOWS) were completed after establishing intravenous access and before administration of study medications, as originally described by Handelsman et al (Handelsman, L., et al., Am J Drug Alcohol Abuse, 1987. 13(3): p. 293-308). All OOWS measurements were obtained by the same blinded research assistant (ND). Ondansetron (Bedford Laboratories, Bedford, Ohio) 8 mg or placebo (0.9% saline solution, Hospira Inc., Lake Forest, Ill.) was administered in a double-blinded fashion as an IV bolus. […] Patients remained in the lab under observation for 105 minutes and were offered music or video entertainment and caffeine-free meals or snacks ad lib during this period of time. After 105 minutes, the patient's vital signs and OOWS and SOWS were reassessed. […] Vital signs, SOWS and OOWS were administered five minutes and fifteen minutes after the naloxone administration.
Animal behavioral data was analyzed using one or two-way ANOVA with post-hoc Tukey testing or, for conditioned place preference data with t-testing. The outcome measures of interest between the placebo- and ondansetron-treated groups were compared using paired t test and the Wilcoxon Signed Rank test where appropriate. Normal distribution was determined using QQ plots and the Kolmogorov-Smirnov test. Analyses were performed with SAS 9.1 statistical package (Cary, Ill.) with p<0.05 considered statistically significant.

morphine-dependent mice = assay: Naloxone-precipitated withdrawal jumping in morphine-dependent mice
Description: After naloxone administration, mice were placed in clear plastic cylinders (10 cm in diameter and 40 cm in height, and the number of jumps during the following 15 minutes were counted. Naloxone precipitated jumping behavior is a robust response reflecting physical dependence on opioids observed across strains of inbred mice (Kest, B., et al., Neuroscience 2002. 115(2): 463-469).
as §1

Htr3b mRNA = Htr3b mRNA expression in brain after chronic morphine (specificity control); details: brain tissue, four days of morphine versus saline, C57Bl/6J and 129/SvlmJ mice
[3] = ondansetron 8 mg IV 30 minutes prior to morphine 10 mg/70 kg IV, naloxone 120 minutes after morphine, versus placebo

## O=C1c2cccc3c2[C@H](CCC3)CN1[C@@H]1CN2CCC1CC2 [palonosetron]
Male volunteers
  naloxone-induced withdrawal symptoms relative to placebo control: reduced the naloxone-induced withdrawal symptoms

## Cc1nccn1CC1CCc2c(c3ccccc3n2C)C1=O (stereo not drawn) [ondansetron]
C57BL/6J mice [1]; ondansetron 1 mg/kg in addition to morphine 5 mg/kg, i.p.
  mean difference between pre and post conditioning percentage of time spent in the compartment associated with drug: 0.40%
C57BL/6J mice [1]; ondansetron 1 mg/kg plus morphine 5 mg/kg
  place preference associated with morphine administration: completely blocked
C57BL/6J mice [2]; control mice not treated with morphine, ondansetron 30 minutes prior to threshold assessment
  pain sensitivity / baseline nociceptive thresholds: no effect on pain sensitivity; also recorded: did not alter baseline nociceptive thresholds
C57BL/6J mice [2]; morphine-dependent mice, 18 hours after last morphine dose, ondansetron 30 minutes prior to threshold assessment (FIG. 4)
  hyperalgesia (mechanical nociceptive sensitization) during morphine abstinence: reversed the hyperalgesia; also recorded: dose-dependently reversed
Healthy male volunteers; [3]
  decrease in mean OOWS score: 76.4%±22.6
  mean decrease in the subjective symptoms (SOWS score): 4.1%±62.5
Healthy male volunteers; ondansetron 8 mg IV pre-treatment, 12 of the 13 measured signs manifested
  individual OOWS signs manifested by the volunteers: decreased all 12 of these individual signs
Healthy male volunteers; ondansetron 8 mg IV pre-treatment, seven of 8 subjects developed signs
  objective signs of opioid withdrawal in affected subjects: reduced these signs in all seven affected individuals
morphine-dependent mice; C57BL/6J mice, ondansetron 1 mg/kg with each morphine dose during 4-day protocol, tested 18 hours after final dose (FIG. 3B)
  naloxone-precipitated withdrawal response: diminished the naloxone-precipitated withdrawal response
morphine-dependent mice; morphine-dependent C57BL/6J mice, ondansetron 1 mg/kg given acutely
  inhibition of naloxone-precipitated withdrawal: not able to effectively inhibit withdrawal
morphine-dependent mice; morphine-dependent C57BL/6J mice, ondansetron i.c.v. before naloxone (FIG. 3C)
  naloxone-precipitated jumping behavior: profoundly blocked; also recorded: statistically significant and dose-dependent reduction
morphine-dependent mice; morphine-dependent C57BL/6J mice, ondansetron s.c. once, range of doses, 30 minutes prior to testing (FIG. 3A)
  naloxone-induced jumping: significantly reduced; also recorded: statistically significant and dose-dependent reduction

## CN1CC[C@]23c4c5ccc(O)c4O[C@H]2[C@@H](O)C=C[C@H]3[C@H]1C5 [morphine]
C57BL/6J mice [1]; morphine 5 mg/kg i.p., placed in conditioning chamber 25 min after injection
  mean difference between pre and post conditioning percentage of time spent in the compartment associated with drug: 21.29%
Htr3b mRNA
  expression of the Htr3b gene: not altered
C57BL/6J mice [2]; C57BL/6J mice, four day morphine protocol
  hyperalgesia after chronic morphine treatment: caused hyperalgesia
morphine-dependent mice; BUB/BnJ mice made dependent on morphine over a 4-day period
  jumps in the 15 minute period following naloxone administration: over 100
morphine-dependent mice; SM/J mice made dependent on morphine over a 4-day period
  jumps in the 15 minute period following naloxone administration: one
